Source: ChEMBL document CHEMBL1212896, “Discovery of novel cyanodihydropyridines as potent mineralocorticoid receptor antagonists” (J Med Chem, 2010)

Legend:
[1] = biological target: T1, Glucocorticoid receptor (Homo sapiens, UniProt P04150); experiment: Antagonist activity at glucocorticoid receptor LBD expressed in human HUH7 cells coexpressing GAL4 by luciferase reporter gene assay; assay type: functional, cell-based, Huh-7
T1 sequence (P04150 whole entry): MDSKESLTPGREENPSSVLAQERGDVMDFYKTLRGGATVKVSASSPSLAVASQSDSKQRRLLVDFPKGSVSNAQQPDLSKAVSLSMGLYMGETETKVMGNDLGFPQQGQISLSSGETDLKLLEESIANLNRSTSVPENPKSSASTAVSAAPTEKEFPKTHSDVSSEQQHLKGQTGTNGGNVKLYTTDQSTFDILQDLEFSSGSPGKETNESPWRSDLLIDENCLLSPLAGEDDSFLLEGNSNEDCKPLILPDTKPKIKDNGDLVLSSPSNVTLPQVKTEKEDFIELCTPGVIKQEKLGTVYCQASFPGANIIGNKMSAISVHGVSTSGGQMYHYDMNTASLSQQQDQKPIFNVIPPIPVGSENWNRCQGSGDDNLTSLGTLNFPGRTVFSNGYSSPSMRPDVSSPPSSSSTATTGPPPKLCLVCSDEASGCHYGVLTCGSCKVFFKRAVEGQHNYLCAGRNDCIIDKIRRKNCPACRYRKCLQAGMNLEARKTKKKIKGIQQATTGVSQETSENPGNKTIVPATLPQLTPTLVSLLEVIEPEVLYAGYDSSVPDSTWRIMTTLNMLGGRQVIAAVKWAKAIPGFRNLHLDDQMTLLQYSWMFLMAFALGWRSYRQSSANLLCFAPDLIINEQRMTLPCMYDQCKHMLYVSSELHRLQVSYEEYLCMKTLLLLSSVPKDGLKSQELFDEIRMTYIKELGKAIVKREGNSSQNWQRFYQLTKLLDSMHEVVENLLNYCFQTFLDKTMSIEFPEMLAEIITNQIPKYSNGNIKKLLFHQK

[2] = biological target: T2, Progesterone receptor (Homo sapiens, UniProt P06401); experiment: Antagonist activity at progesterone receptor LBD expressed in human HUH7 cells coexpressing GAL4 by luciferase reporter gene assay; assay type: functional, cell-based, Huh-7
T2 sequence (P06401 whole entry): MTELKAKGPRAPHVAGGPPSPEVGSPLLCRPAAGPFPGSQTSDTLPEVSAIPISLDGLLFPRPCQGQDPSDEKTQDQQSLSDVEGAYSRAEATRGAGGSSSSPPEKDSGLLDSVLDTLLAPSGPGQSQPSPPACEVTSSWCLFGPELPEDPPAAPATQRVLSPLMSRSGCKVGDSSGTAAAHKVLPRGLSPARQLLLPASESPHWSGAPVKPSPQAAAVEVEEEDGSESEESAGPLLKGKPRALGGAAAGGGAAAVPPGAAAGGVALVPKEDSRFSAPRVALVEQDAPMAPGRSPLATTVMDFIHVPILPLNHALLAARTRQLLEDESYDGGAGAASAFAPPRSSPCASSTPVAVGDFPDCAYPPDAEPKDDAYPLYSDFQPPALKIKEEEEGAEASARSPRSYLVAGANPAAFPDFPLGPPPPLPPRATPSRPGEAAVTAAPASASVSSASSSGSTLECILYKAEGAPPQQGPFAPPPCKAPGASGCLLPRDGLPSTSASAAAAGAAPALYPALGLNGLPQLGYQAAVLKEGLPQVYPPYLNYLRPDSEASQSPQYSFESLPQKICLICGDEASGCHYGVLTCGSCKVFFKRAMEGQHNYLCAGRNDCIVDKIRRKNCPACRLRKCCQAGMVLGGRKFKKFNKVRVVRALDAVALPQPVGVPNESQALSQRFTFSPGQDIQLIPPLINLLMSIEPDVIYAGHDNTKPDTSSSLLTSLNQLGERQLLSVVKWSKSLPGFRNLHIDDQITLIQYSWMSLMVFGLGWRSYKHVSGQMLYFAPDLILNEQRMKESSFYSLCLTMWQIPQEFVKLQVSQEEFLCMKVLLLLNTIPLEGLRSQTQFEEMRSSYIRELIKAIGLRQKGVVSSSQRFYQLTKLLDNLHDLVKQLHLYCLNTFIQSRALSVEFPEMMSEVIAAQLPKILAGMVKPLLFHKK

[3] = test system: Liver microsomes; experiment: Metabolic stability in rat liver microsomes assessed as compound remaining; assay type: ADME, Microsome; note: time not given here
[4] = biological target: Cytochrome P450 3A4 (Homo sapiens, UniProt P08684); experiment: Inhibition of CYP3A4; assay type: ADME
[5] = biological target: Cytochrome P450 2C9 (Homo sapiens, UniProt P11712); experiment: Inhibition of CYP2C9; assay type: ADME
[6] = biological target: T3, Mineralocorticoid receptor (Homo sapiens, UniProt P08235)
T3 sequence (P08235 whole entry): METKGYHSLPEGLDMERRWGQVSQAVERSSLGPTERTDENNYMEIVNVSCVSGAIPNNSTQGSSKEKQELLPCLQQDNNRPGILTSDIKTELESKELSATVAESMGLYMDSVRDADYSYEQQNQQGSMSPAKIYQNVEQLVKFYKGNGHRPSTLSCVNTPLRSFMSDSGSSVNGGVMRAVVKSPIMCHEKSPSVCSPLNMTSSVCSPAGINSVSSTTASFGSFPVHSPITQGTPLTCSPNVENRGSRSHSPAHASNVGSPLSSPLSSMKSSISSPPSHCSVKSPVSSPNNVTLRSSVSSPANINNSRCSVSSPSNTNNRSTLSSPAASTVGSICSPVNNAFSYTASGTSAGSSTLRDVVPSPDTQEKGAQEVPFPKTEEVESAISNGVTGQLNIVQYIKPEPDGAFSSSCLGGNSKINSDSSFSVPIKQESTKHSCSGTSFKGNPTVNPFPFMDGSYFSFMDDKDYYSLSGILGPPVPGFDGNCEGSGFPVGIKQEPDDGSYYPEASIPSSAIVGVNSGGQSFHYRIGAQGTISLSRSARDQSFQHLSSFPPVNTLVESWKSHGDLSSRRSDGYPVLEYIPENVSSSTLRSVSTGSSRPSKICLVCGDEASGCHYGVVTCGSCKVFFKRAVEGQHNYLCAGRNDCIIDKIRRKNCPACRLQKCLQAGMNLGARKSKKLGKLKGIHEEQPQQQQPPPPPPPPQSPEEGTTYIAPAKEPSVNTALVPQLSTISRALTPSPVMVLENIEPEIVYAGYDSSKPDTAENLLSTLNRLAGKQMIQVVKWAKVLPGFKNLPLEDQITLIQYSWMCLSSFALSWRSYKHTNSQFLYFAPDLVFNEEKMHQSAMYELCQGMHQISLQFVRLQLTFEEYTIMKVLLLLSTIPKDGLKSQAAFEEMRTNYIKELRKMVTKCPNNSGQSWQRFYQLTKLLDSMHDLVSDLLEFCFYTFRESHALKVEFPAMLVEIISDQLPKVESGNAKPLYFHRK
Description: Antagonist activity at mineralocorticoid receptor LBD expressed in human HUH7 cells coexpressing GAL4 by luciferase reporter gene assay

Cytochrome P450 2C9, sequence (P11712 whole entry): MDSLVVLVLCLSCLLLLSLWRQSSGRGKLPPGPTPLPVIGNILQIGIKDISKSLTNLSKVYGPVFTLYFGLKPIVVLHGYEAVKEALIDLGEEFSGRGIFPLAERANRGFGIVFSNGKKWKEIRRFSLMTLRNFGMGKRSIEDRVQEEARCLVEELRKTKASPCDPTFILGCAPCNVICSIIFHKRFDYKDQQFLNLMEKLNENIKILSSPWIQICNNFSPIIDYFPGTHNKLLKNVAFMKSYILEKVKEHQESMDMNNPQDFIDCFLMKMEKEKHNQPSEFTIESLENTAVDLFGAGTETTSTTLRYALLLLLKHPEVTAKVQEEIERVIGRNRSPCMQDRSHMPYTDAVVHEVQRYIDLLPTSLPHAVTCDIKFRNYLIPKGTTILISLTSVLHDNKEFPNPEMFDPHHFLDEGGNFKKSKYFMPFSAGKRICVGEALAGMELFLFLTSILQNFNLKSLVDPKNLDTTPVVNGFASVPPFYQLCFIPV
Cytochrome P450 3A4, sequence (P08684 whole entry): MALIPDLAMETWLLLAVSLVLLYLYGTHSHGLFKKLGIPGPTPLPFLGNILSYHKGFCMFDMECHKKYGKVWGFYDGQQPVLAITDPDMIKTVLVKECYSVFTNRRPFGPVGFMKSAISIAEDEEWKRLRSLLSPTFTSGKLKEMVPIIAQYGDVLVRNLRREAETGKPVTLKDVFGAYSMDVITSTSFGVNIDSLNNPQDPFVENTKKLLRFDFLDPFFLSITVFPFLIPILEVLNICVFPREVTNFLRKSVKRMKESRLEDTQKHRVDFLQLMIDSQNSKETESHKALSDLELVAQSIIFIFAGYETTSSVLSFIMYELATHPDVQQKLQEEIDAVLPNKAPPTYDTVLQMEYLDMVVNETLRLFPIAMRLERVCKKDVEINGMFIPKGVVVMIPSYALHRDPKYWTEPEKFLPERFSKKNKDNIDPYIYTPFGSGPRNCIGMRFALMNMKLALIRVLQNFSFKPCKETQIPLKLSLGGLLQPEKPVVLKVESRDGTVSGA

COC(=O)C1=C(Cn2cncn2)NC(C)=C(C#N)C1c1ccc(F)cc1Cl (stereo not given)
IC50 [1]: 2900 nM
IC50 [2]: 7000 nM
Stability [3]: 34%
IC50 [4]: 800 nM
IC50 [5]: 100 nM
IC50 [6]: 123 nM

COC(=O)C1=C(C)NC(C)=C(C#N)C1c1ccc(F)cc1Cl (stereo not given)
IC50 [1]: 5100 nM
IC50 [2]: 900 nM
Stability [3]: 14%
inhibition (INH) [4]: 40%
inhibition (INH) [5]: 44%
IC50 [6]: 92 nM

COC(=O)C1=C(Cn2ccnc2)NC(C)=C(C#N)C1c1ccc(F)cc1Cl (stereo not given)
IC50 [1]: 2200 nM
IC50 [2]: > 10000 nM
Stability [3]: 64%
IC50 [4]: 200 nM
IC50 [5]: 1000 nM
IC50 [6]: 9 nM

COC(=O)C1=C(Cn2cnnn2)NC(C)=C(C#N)C1c1ccc(F)cc1Cl (stereo not given)
IC50 [1]: 1300 nM
IC50 [2]: > 10000 nM
Stability [3]: 60%
IC50 [4]: 1200 nM
IC50 [5]: 1900 nM
IC50 [6]: 64 nM

CCCC1=C(C(=O)OC)C(c2ccccc2Cl)C(C#N)=C(C)N1 (stereo not given)
IC50 [1]: 1600 nM
IC50 [2]: 200 nM
Stability [3]: 13%
inhibition (INH) [4]: 71%
inhibition (INH) [5]: 83%
IC50 [6]: 64 nM
